# Results as given in ChEMBL document CHEMBL3870345, “Bioactive chemical constituents from the root bark of Morus australis” (Bioorg Med Chem Lett, 2017).
# How the values were obtained:
# [1] = tested on: RAW264.7; test: Inhibition of LPS-induced NO production in mouse RAW264.7 cells at 3.125 ug/ml measured after 24 hrs by Griess assay relative to LPS-treated control; type: functional; conditions: RAW264.7, 24 h
# [2] = Antiplatelet aggregatory activity against New Zealand white rabbit platelets at 100 uM preincubated for 2 to 3 mins followed by PAF-addition measured after 4 mins by turbidometric method relative to vehicle control; type: functional, Oryctolagus cuniculus, Platelet
# [3] = Cytotoxicity against mouse RAW264.7 cells assessed as cell viability at 25 ug/ml measured after 24 hrs in presence of LPS by MTT assay (reference value: 96.3 +/- 1%); type: toxicity; conditions: read-out: Activity
# [4] = Cytotoxicity against mouse RAW264.7 cells assessed as cell viability at 6.25 ug/ml measured after 24 hrs in presence of LPS by MTT assay (reference value: 96.3 +/- 1%); type: toxicity; conditions: read-out: Activity
# [5] = Antiplatelet aggregatory activity against New Zealand white rabbit platelets at 100 uM preincubated for 2 to 3 mins followed by ADP-addition measured after 4 mins by turbidometric method relative to vehicle control; type: functional, Oryctolagus cuniculus, Platelet
# [6] = Antiplatelet aggregatory activity against New Zealand white rabbit platelets at 100 uM preincubated for 2 to 3 mins followed by arachidonic acid -addition measured after 4 mins by turbidometric method relative to vehicle control; type: functional, Oryctolagus cuniculus, Platelet
# [7] = tested on: RAW264.7; test: Inhibition of LPS-induced NO production in mouse RAW264.7 cells at 6.25 ug/ml measured after 24 hrs by Griess assay relative to LPS-treated control; type: functional; conditions: RAW264.7, 24 h
# [8] = tested on: RAW264.7; test: Inhibition of LPS-induced NO production in mouse RAW264.7 cells measured after 24 hrs by Griess assay; type: functional, cell-based; conditions: for IC50: RAW264.7, 24 h
# [9] = tested on: RAW264.7; test: Inhibition of LPS-induced NO production in mouse RAW264.7 cells at 12.5 ug/ml measured after 24 hrs by Griess assay relative to LPS-treated control; type: functional; conditions: RAW264.7, 24 h
# [10] = Cytotoxicity against mouse RAW264.7 cells assessed as cell viability at 12.5 ug/ml measured after 24 hrs in presence of LPS by MTT assay (reference value: 96.3 +/- 1%); type: toxicity; conditions: read-out: Activity
# [11] = Cytotoxicity against mouse RAW264.7 cells assessed as cell viability at 50 ug/ml measured after 24 hrs in presence of LPS by MTT assay (reference value: 96.3 +/- 1%); type: toxicity; conditions: read-out: Activity
# [12] = Cytotoxicity against mouse RAW264.7 cells assessed as cell viability at 3.125 ug/ml measured after 24 hrs in presence of LPS by MTT assay (reference value: 96.3 +/- 1%); type: toxicity; conditions: read-out: Activity
# [13] = Cytotoxicity against mouse RAW264.7 cells assessed as cell viability at 1.563 ug/ml measured after 24 hrs in presence of LPS by MTT assay (reference value: 96.3 +/- 1%); type: toxicity; conditions: read-out: Activity
# [14] = tested on: RAW264.7; test: Inhibition of LPS-induced NO production in mouse RAW264.7 cells at 1.563 ug/ml measured after 24 hrs by Griess assay relative to LPS-treated control; type: functional; conditions: RAW264.7, 24 h
# [15] = Antiplatelet aggregatory activity against New Zealand white rabbit platelets preincubated for 2 to 3 mins followed by ADP-addition measured after 4 mins by turbidometric method; type: functional, cell-based, Oryctolagus cuniculus; conditions: platelet
# [16] = tested on: RAW264.7; test: Inhibition of LPS-induced NO production in mouse RAW264.7 cells at 25 ug/ml measured after 24 hrs by Griess assay relative to LPS-treated control; type: functional; conditions: RAW264.7, 24 h
# [17] = Antiplatelet aggregatory activity against New Zealand white rabbit platelets at 50 uM preincubated for 2 to 3 mins followed by arachidonic acid -addition measured after 4 mins by turbidometric method relative to vehicle control; type: functional, Oryctolagus cuniculus, Platelet
# [18] = tested on: RAW264.7; test: Inhibition of LPS-induced NO production in mouse RAW264.7 cells at 1.562 ug/ml measured after 24 hrs by Griess assay relative to LPS-treated control; type: functional; conditions: RAW264.7, 24 h
# [19] = Antiplatelet aggregatory activity against New Zealand white rabbit platelets preincubated for 2 to 3 mins followed by arachidonic acid-addition measured after 4 mins by turbidometric method; type: functional, cell-based, Oryctolagus cuniculus; conditions: platelet
# [20] = Cytotoxicity against mouse RAW264.7 cells assessed as cell viability at 1.562 ug/ml measured after 24 hrs in presence of LPS by MTT assay (reference value: 96.3 +/- 1%); type: toxicity; conditions: read-out: Activity
# [21] = Antiplatelet aggregatory activity against New Zealand white rabbit platelets at 10 uM preincubated for 2 to 3 mins followed by PAF-addition measured after 4 mins by turbidometric method relative to vehicle control; type: functional, Oryctolagus cuniculus, Platelet
Structure (SMILES),IC50 [8],inhibition at 3.125 µg/mL [1],Activity [2],"viability at 24 h, 25 ug/ml [3]","viability at 24 h, 6.25 ug/ml [4]",Activity [5],Activity [6],inhibition at 6.25 µg/mL [7],inhibition [8],inhibition at 12.5 µg/mL [9],"viability at 24 h, 12.5 ug/ml [10]","viability at 24 h, 50 ug/ml [11]","viability at 24 h, 3.125 ug/ml [12]",further results
C=C(C)C(=O)c1c(-c2ccc(O)cc2O)oc2cc3c(c(O)c2c1=O)C=CC(C)(C)O3,,,<60%,,,<60%,<60%,,,,,,,
CC(C)=CCC/C(C)=C/Cc1c(-c2ccc(O)cc2O)oc2c(CC=C(C)C)c(O)cc(O)c2c1=O,> 25 µg/mL,30%,90.15%,96.8%,99.7%,96.37%,89.66%,33.7%,Dose-dependent effect,34.1%,97.1%,67%,100%,inhibition at 25 µg/mL [16]: 35%
CC(=O)Oc1ccccc1C(=O)O [ASPIRIN],,,,,,,,,,,,,,Activity [17]: 90.62%
O=[N+]([O-])/C=C\c1ccc(O)cc1,2.1 µg/mL,59.6%,73.02%,46.9%,82.2%,96.35%,96.03%,60%,Dose-dependent effect,,48.3%,11.9%,89%,"inhibition at 1.562 µg/mL [18]: 46.4%; IC50 [19]: 9.81 µM; viability at 24 h, 1.562 ug/ml [20]: 94.5%; IC50 [15]: 9.76 µM"
C=C(C)C(O)CC[C@]1(C)C=Cc2c(cc3oc(-c4ccc(O)cc4)cc(=O)c3c2O)O1 (some centres undefined),,,<60%,,,<60%,<60%,,,,,,,
CCCCCCCCCCCCCCCCCCNC(=O)OCC(COP(=O)([O-])OCC[n+]1ccsc1)OC (centres undefined),,,,,,,,,,,,,,Activity [21]: 85.96%

# Further lines, with some results ahead:
IC50 [8],Structure (SMILES),inhibition at 3.125 µg/mL [1],Activity [2],"viability at 24 h, 25 ug/ml [3]","viability at 24 h, 6.25 ug/ml [4]",Activity [5],Activity [6],inhibition at 6.25 µg/mL [7],inhibition [8],inhibition at 12.5 µg/mL [9],"viability at 24 h, 12.5 ug/ml [10]","viability at 24 h, 50 ug/ml [11]","viability at 24 h, 3.125 ug/ml [12]",further results
> 12.5 µg/mL,CC(C)=CCc1c(-c2ccc(O)cc2O)oc2c3c(cc(O)c2c1=O)OC(C)(C)C=C3 [MORUSIN],15.1%,<60%,69.6%,83.3%,60.22%,<60%,23.3%,Dose-dependent effect,39.3%,73.8%,23.1%,94.5%,
2.4 µg/mL,CC(=O)Oc1ccc(-c2oc3c4c(cc(O)c3c(=O)c2CC=C(C)C)OC(C)(C)C=C4)c(OC(C)=O)c1,58.7%,90.22%,13.9%,80.3%,93.27%,90.01%,69.2%,Dose-dependent effect,,36.6%,11.7%,91%,"viability at 24 h, 1.563 ug/ml [13]: 96%; inhibition at 1.563 µg/mL [14]: 40.4%; IC50 [15]: 10.2 µM"
6.3 µg/mL,CC1(C)C=Cc2c(cc(O)c3c(=O)c4c(oc23)-c2ccc(O)cc2OC(C(C)(C)O)C4)O1 (centres undefined) [NEOCYCLOMORUSIN],41.2%,99.63%,40.8%,82.4%,98.57%,99.7%,50.8%,Dose-dependent effect,,48.8%,12.8%,98.3%,
4.5 µg/mL,CC(C)=CC1Oc2cc(O)ccc2-c2oc3c4c(cc(O)c3c(=O)c21)OC(C)(C)C=C4 (centres undefined) [CYCLOMORUSIN],46.6%,<60%,57.6%,86.2%,<60%,<60%,54.1%,Dose-dependent effect,73.7%,81.9%,14%,86.3%,
4.1 to 4.6 µg/mL,CC(C)(O)CCc1c(-c2ccc(O)cc2O)oc2c3c(cc(O)c2c1=O)OC(C)(C)C=C3 [MORUSINOL],42 to 45.8%,<60%,36.9 to 49.2%,81.9 to 91.3%,57.88 - 78.98%,50.5%,59 to 62.5%,Dose-dependent effect,81.4%,69.5 to 82.1%,9.9 to 14.4%,95.9%,
